Results published in patent US20250235507A1, “INHALABLE POROUS MICROSPHERE LOADED WITH RECOMBINANT HUMAN RELAXIN-2 AND PREPARATION METHOD THEREFOR” (SHANDONG UNIVERSITY, priority 2023, published 2025).

Columns and labels:
[1] = tested on: bleomycin-induced pulmonary fibrosis mouse model; assay: Anti-fibrosis effect in bleomycin-induced pulmonary fibrosis mouse model (micro-CT, weight, lung wet weight); format: in vivo
Experimental: (§1) C57BL/6J mice (20±2 g, female) were purchased from Beijing Life River Experimental Animal Technology Co., Ltd, and were housed in specific pathogen-free animal facilities. For the induction of fibrosis, mice were treated with 100 μL of bleomycin (with concentration of 1 mg/mL) at a dose of 5 mg/Kg via tracheal intubation.
(§2) After two weeks of bleomycin administration, mice were divided into four groups. In the RLX@PMs group, porous microspheres loaded with RLX were administered at a single dose of 70 μg/mouse (including RLX) to each mouse via nebulization. Similarly, in the RLX-free group, the RLX-free solution was administered via nebulization at a dose of 5 μg/mouse daily for two weeks. In addition, a blank control group only nebulized with PBS (PBS group) was also set up. Pirfenidone was used as a positive control, and was administered via intragastric gavage to mice at a dose of 300 mg/kg daily for two weeks (PFD group). The weight of mice was recorded once every two days.
For further examination, after anesthesia, whole-lung imaging was performed using a micro-computed tomography (micro-CT) imaging system for small animals (scanning parameters: scan resolution, 18 μm; voltage, 70 kV; current, 100 μA). After treatment, all mice were euthanized and tissues were collected for further analysis, and lung coefficient was calculated by the wet weight of lungs.

[2] = tested on: bleomycin-induced pulmonary fibrosis mouse model; assay: Lung histopathology: H&E, Masson trichrome and Sirius red staining; format: in vivo, C57BL/6J mice
Experimental: as §1, §2
In addition to in vivo imaging examination, we also used hematoxylin and eosin (H&E) staining, Masson's trichrome staining and Sirius red staining to detect the histological changes and collagen deposition in the lungs according to the manufacturer's instructions. After the mice were euthanized, the whole lung tissues were collected and fixed in 4% paraformaldehyde overnight. Subsequently, the tissues were subjected to gradient dehydration according to the standard procedure and embedded with paraffin. The lung tissues of mice were embedded in paraffin and cut into 3 μm sections, followed by H&E staining. […] The stained sections were imaged using a VS120 virtual slide microscope, and the severity of interstitial fibrosis was evaluated at 100× magnification by measuring the percentage of blue stained area. […] After staining, the stained sections were scanned by a polarization microscope, and the degree of collagen deposition in the lung was evaluated based on the image. All collagen density data were quantified by ImageJ software.

[3] = mice
Experimental: Real-time fluorescence images were obtained by the small animal in vivo imaging system at regular intervals. The same treatment was carried out using the same dose of rhodamine B-free as the control group.

| Structure (SMILES) | lung structure / fibrosis by micro-CT ([1]; after 4 weeks of treatment) | mortality ([1]; bleomycin mice, PFD 300 mg/kg daily, intragastric) | weight change of mice ([1]; weight recorded every two days) | collagen accumulation / deposition (Masson trichrome staining) ([2]; fibrosis around bronchi, versus PBS group) | airway remodeling, angiogenesis and parenchymal inflammation (lung histopathology) ([2]; increased by bleomycin exposure) | therapeutic effect on collagen deposition (Sirius red staining) ([2]; polarization microscope) | site of deposition (lung versus gastrointestinal tract), fluorescence signals ([3]; nebulized inhalation, in vivo imaging) | time until fluorescence signals disappeared completely ([3]; single inhalation) |
| --- | --- | --- | --- | --- | --- | --- | --- | --- |
| Cc1ccc(=O)n(-c2ccccc2)c1 [Pirfenidone] | a certain degree of fibrosis | died within three weeks | progressive weight loss | lower than that of the PBS group | attenuated these effects | slight therapeutic effect | – | – |
| CCN(CC)c1ccc2c(-c3ccccc3C(=O)O)c3ccc(=[N+](CC)CC)cc-3oc2c1 [rhodamine B-free, rhodamine B] | – | – | – | – | – | – | higher | ≤ 2 weeks |
